According to the supplement of paper PMC4862054:

Experiments:
Settings in all cases: incubation time: 72 h
DU-4475 = experiment: drug sensitivity score (DSS), CellTiter-Glo (DSS (AUC-based score)); higher = stronger drug effect (viability inhibition or cytotoxicity); extreme values may be limits of the assay
Outline: (§1)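 Breast cancer cell lines, seeded as 20 µl suspension, were incubated 72 h with compound in 384-well plates at 5 concentrations in 10-fold steps over a 10,000-fold range set for each compound. Fluorescence from CellTox Green was read at 485/520 nm before CellTiter-Glo luminescence, which was read after 10 min at room temperature. Every plate was normalised to 0.1 % DMSO and a positive kill control, and the drug sensitivity score was taken from the area under the fitted dose-response curve.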

HDQ-P1 [1] = experiment: as above
Outline: as §1

SK-BR-3 [2] = experiment: as above
Outline: as §1

MDA-MB-231 [3] = experiment: as above
Outline: as §1

MDA-MB-468 [4] = experiment: as above
Outline: as §1

HCC1599 [5] = experiment: as above
Outline: as §1

BT-549 [6] = experiment: as above
Outline: as §1

MDA-MB-453 [7] = experiment: as above
Outline: as §1

MDA-MB-436 [8] = experiment: as above
Outline: as §1

CAL-51 = experiment: drug sensitivity score (DSS), CellTiter-Blue viability (DSS (AUC-based score)); higher = stronger viability inhibition; extreme values may be limits of the assay
Outline: (§2)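 A 72 h incubation followed seeding of breast cancer cell lines (20 µl suspension) into 384-well plates holding compound in a 5- or 9-concentration series. CellTiter-Blue, 2.5 µl per well, was incubated 2 h at 37 °C, and fluorescence was measured at 560/590 nm. Normalisation on every plate used 0.1 % DMSO and a positive kill control. From the fitted dose-response curve, the area under the curve was taken as the drug sensitivity score.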

HDQ-P1 [9] = experiment: as above
Outline: as §2

Hs578T = experiment: as above
Outline: as §2

SK-BR-3 [10] = experiment: as above
Outline: as §2

MDA-MB-231 [11] = experiment: as above
Outline: as §2

CAL-148 = experiment: as above
Outline: as §2

CAL-85-1 = experiment: as above
Outline: as §2

BT-474 = experiment: as above
Outline: as §2

MFM-223 = experiment: as above
Outline: as §2

HCC1937 = experiment: as above
Outline: as §2

MDA-MB-468 [12] = experiment: as above
Outline: as §2

HCC1599 [13] = experiment: as above
Outline: as §2

CAL-120 = experiment: as above
Outline: as §2

BT-549 [14] = experiment: as above
Outline: as §2

HCC1143 = experiment: as above
Outline: as §2

MDA-MB-453 [15] = experiment: as above
Outline: as §2

MDA-MB-436 [16] = experiment: as above
Outline: as §2

CCS(=O)(=O)c1cccc(-c2cc(C(=O)NC3CCN(C)CC3)c(C)c3[nH]c4ncc(C)cc4c23)c1 [TAK-901]
drug sensitivity score (DU-4475): 0
drug sensitivity score (HDQ-P1 [1]): 3.52
drug sensitivity score (SK-BR-3 [2]): 0
drug sensitivity score (MDA-MB-231 [3]): 7.63
drug sensitivity score (MDA-MB-468 [4]): 12.3
drug sensitivity score (HCC1599 [5]): 0
drug sensitivity score (BT-549 [6]): 6.76
drug sensitivity score (MDA-MB-453 [7]): 0
drug sensitivity score (MDA-MB-436 [8]): 2.45
drug sensitivity score (CAL-51): 8.9
drug sensitivity score (HDQ-P1 [9]): 5.84
drug sensitivity score (Hs578T): 6.31
drug sensitivity score (SK-BR-3 [10]): 0
drug sensitivity score (MDA-MB-231 [11]): 9
drug sensitivity score (CAL-148): 0
drug sensitivity score (CAL-85-1): 5.05
drug sensitivity score (BT-474): 0
drug sensitivity score (MFM-223): 10.3
drug sensitivity score (HCC1937): 6.44
drug sensitivity score (MDA-MB-468 [12]): 0.762
drug sensitivity score (HCC1599 [13]): 4.14
drug sensitivity score (CAL-120): 10
drug sensitivity score (BT-549 [14]): 8.46
drug sensitivity score (HCC1143): 8.44
drug sensitivity score (MDA-MB-453 [15]): 10.7
drug sensitivity score (MDA-MB-436 [16]): 1.92

CCCC(CCC)C(=O)O [Valproic acid]
drug sensitivity score (DU-4475): 0
drug sensitivity score (HDQ-P1 [1]): 0
drug sensitivity score (SK-BR-3 [2]): 0
drug sensitivity score (MDA-MB-231 [3]): 0
drug sensitivity score (MDA-MB-468 [4]): 0
drug sensitivity score (HCC1599 [5]): 0
drug sensitivity score (BT-549 [6]): 0
drug sensitivity score (MDA-MB-453 [7]): 1.51
drug sensitivity score (MDA-MB-436 [8]): 0
drug sensitivity score (CAL-51): 0
drug sensitivity score (HDQ-P1 [9]): 0
drug sensitivity score (Hs578T): 0
drug sensitivity score (SK-BR-3 [10]): 0
drug sensitivity score (MDA-MB-231 [11]): 0
drug sensitivity score (CAL-148): 0
drug sensitivity score (CAL-85-1): 0
drug sensitivity score (BT-474): 0
drug sensitivity score (MFM-223): 0
drug sensitivity score (HCC1937): 0
drug sensitivity score (MDA-MB-468 [12]): 0
drug sensitivity score (HCC1599 [13]): 0
drug sensitivity score (CAL-120): 0
drug sensitivity score (BT-549 [14]): 0
drug sensitivity score (HCC1143): 0
drug sensitivity score (MDA-MB-453 [15]): 0
drug sensitivity score (MDA-MB-436 [16]): 0
